Measured values: paper PMC9488896, “Hydroxamic Acid-Modified Peptide Library Provides Insights into the Molecular Basis for the Substrate Selectivity of HDAC Corepressor Complexes” (ACS Chemical Biology, 2022)
Where two headings read alike, the source gives them in different places. Residues, ends and D or L forms follow the SMILES beside them.

Legend:
[1] = target: T1, HDAC1/MTA1(aa: 162–546)/RBBP4 core NuRD complex (HMR) (Homo sapiens, UniProt Q09028+Q13330+Q13547); experiment: Boc-Lys HDAC inhibition assay; type: biochemical; details: 50 nM complex, 100 μM Boc-(Ac)Lys-AMC, 37 °C 30 min, technical replicates N = 2
T1 construct: made in house; host or cells: HEK293F
T1 sequence (Q13547 whole entry, species assumed): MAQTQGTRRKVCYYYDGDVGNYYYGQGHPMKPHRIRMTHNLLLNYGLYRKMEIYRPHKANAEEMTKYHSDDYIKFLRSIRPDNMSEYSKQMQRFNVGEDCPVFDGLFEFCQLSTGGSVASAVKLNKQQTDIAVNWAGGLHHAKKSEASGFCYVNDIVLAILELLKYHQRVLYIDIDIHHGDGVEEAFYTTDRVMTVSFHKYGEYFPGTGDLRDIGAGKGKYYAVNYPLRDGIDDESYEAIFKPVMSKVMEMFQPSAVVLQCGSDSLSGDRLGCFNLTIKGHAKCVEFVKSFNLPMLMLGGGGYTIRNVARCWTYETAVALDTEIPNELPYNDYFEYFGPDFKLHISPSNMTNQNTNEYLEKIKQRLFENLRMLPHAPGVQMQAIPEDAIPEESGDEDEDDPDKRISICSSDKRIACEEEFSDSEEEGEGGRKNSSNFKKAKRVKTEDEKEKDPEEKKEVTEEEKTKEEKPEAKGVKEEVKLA
T1 sequence (Q13330 162-546 partner limits assumed, species assumed): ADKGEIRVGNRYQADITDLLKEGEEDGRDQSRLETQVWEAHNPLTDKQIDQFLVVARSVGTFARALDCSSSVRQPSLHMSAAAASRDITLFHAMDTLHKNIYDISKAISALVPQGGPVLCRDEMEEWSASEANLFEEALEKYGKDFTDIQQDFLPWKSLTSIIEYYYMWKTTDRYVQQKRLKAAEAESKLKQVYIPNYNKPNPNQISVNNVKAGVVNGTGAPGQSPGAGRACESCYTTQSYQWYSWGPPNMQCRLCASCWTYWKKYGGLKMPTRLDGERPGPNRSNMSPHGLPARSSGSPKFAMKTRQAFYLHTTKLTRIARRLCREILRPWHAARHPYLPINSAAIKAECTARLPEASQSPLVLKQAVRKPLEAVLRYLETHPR
T1 sequence (Q09028 whole entry partner, species assumed): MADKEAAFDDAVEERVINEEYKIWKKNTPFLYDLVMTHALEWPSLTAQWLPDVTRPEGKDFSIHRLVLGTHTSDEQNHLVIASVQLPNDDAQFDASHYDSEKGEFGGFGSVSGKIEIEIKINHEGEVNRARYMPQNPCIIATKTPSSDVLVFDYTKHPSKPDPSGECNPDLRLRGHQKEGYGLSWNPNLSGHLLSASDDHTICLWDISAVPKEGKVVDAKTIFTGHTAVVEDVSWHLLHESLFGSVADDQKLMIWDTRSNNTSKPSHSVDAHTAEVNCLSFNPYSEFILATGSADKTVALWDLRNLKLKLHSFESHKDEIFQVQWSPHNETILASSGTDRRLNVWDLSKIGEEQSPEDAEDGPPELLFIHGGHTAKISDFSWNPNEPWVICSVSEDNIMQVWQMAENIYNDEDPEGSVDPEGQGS
Method: (§1) Inhibition assays with various peptide inhibitors were performed using a fluorescence-based assay. The inhibitor peptides were initially dissolved in 5% dimethyl sulfoxide (DMSO) at a stock concentration of 25 mM before being further diluted in the HDAC assay buffer (50 mM Tris/HCl, pH 7.5, 150 mM NaCl). Serial dilutions (1:3) of the inhibitor were prepared, starting at a concentration of 500 μM. HDAC complexes were diluted to a final concentration of 50 nM and incubated with the inhibitor for 20 min at rt. The Boc-(Ac)Lys-AMC substrate was added at a final concentration of 100 μM The final volume of the reaction was 50 μL. The reaction was incubated at 37 °C, 150 rpm, for 30 min, before a developer (50 mM Tris, pH 7.5, 100 mM NaCl, 10 mg/mL trypsin) was added. The reaction was incubated with the developer for 10 min before being measured (PerkinElmer, 2030 multilabel reader, VICTOR X5, excitation 335 nm, emission 460 nm). The absorbance of the buffer as the blank control was subtracted from the HDAC activity, and IC50 calculations were performed using the nonlinear regression log(inhibitor) vs response equation Y = bottom + (top – bottom)/(1+10^(X–Log IC50)) in Graphpad Prism 9.

HMR complex = target: T2, HMR complex (Homo sapiens, UniProt Q09028+Q13330+Q13547); experiment: Fluorescence polarization binding assay; details: 10 nM FTU-labeled peptide, increasing HMR, 30 min rt; one-site binding fit; technical replicates N = 2; read-out: KD of Fluorescein-labelled peptides against HMR
T2 construct: made in house; host or cells: HEK293F
T2 sequence (Q13547 whole entry, species assumed): as the sequence (Q13547 whole entry, species assumed) above
T2 sequence (Q13330 162-546 partner limits assumed, species assumed): as the sequence (Q13330 162-546 partner limits assumed, species assumed) above
T2 sequence (Q09028 whole entry partner, species assumed): as the sequence (Q09028 whole entry partner, species assumed) above
Method: We aimed first to validate the results of the activity assay with the hydroxamic acid-containing peptides in terms of binding kinetics. To this end, we designed and synthesized fluorescein-labeled analogues (FTU) of the key peptides identified from the inhibition assay: FTU-H3(6−12)K9Hd 17, FTU-H3(23–29)K27Hd 18, FTU-H4(8−14)K12Hd 19, and FTU-H4(12−18)K16Hd 20. […] These peptides were then tested in an FP assay to measure their binding affinity for the HMR complex (Figure 2D).
The fluorescence polarization assay was performed using 96-well black plates (Corning). FTU (10 nM)-labeled peptides (peptides 17–20) were incubated with increasing concentrations of HMR for 30 min at rt. The plate was shaken before being read on a Victor X5 Plate reader (Perkin Elmer). […] values were calculated using the nonlinear regression one-site binding equation Y = Bmax × X/(KD + X) using Graphpad Prism 9.

MIER1 complex = target: T3, MIER1 complex (Homo sapiens, UniProt Q13547+Q8N108); experiment: Boc-Lys HDAC inhibition assay; type: biochemical; details: HDAC complexes tables; 50 nM complex, 100 μM Boc-(Ac)Lys-AMC, 37 °C 30 min; technical replicates N = 2
T3 construct: made in house; host or cells: HEK293F
T3 sequence (Q13547 whole entry): as the sequence (Q13547 whole entry, species assumed) above
T3 sequence (Q8N108 whole entry partner): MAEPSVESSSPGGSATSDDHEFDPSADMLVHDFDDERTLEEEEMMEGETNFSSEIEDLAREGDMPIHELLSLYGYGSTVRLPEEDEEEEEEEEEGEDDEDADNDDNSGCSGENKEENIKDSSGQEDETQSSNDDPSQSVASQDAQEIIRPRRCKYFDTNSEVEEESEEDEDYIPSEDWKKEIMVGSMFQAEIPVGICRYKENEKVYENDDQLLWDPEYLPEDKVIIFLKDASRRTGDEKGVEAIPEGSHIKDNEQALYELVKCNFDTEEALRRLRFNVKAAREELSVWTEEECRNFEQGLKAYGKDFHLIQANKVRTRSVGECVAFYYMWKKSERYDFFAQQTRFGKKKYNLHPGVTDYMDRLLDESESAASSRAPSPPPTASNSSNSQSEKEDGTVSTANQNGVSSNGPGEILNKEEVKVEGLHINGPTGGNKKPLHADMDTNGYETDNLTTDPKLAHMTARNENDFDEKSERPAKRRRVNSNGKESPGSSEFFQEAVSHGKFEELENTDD
Source text: (§2) Finally, we directed our attention toward assessing how the results from the experiments with HMR would be common to the other known class I HDAC corepressor complexes. RERE, MIER1, CoREST, HMR, MiDAC, Sin3A, and SMRT were expressed and purified, and the concentrations were normalized based on the concentration of HDAC1 or HDAC3 (Figure 4A). We determined the potency of H3(23–29)K27Hd 12 and H4(12–18)K16Hd 16 against RERE, MIER1, CoREST, NuRD, MiDAC, Sin3A, and SMRT (Figure 4B). In addition, we repeated the H3(23–29)K27Hd alanine scan experiment for each of these complexes to assess whether or not the importance of Lys23 for maintaining potency against HMR was replicated across the other complexes (Figure 4C).
as §1

MiDAC complex = target: T4, MiDAC complex (Homo sapiens, UniProt Q13547+Q6PJG2+Q9H147); experiment: Boc-Lys HDAC inhibition assay; type: biochemical; details: HDAC complexes tables; 50 nM complex, 100 μM Boc-(Ac)Lys-AMC, 37 °C 30 min; technical replicates N = 2
T4 construct: made in house; host or cells: HEK293F
T4 sequence (Q13547 whole entry): as the sequence (Q13547 whole entry, species assumed) above
T4 sequence (Q6PJG2 628-887 partner limits assumed): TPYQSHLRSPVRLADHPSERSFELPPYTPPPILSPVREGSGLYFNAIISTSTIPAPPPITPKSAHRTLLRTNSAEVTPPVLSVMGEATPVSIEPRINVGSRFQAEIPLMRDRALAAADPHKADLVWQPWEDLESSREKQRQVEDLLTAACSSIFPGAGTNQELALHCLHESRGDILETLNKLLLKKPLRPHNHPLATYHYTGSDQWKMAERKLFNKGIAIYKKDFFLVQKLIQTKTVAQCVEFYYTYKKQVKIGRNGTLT
T4 sequence (Q9H147 whole entry partner): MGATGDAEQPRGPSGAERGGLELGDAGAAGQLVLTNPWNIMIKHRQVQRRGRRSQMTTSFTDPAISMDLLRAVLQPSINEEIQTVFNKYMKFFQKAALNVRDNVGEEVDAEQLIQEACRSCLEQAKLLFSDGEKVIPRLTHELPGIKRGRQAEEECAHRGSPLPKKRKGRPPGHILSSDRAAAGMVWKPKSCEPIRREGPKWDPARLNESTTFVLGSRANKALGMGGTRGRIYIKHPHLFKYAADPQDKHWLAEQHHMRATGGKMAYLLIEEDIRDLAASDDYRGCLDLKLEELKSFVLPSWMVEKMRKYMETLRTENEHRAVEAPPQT
Source text: as §2, §1

RERE complex = target: T5, RERE complex (Homo sapiens, UniProt Q13547+Q9P2R6); experiment: Boc-Lys HDAC inhibition assay; type: biochemical; details: HDAC complexes tables; 50 nM complex, 100 μM Boc-(Ac)Lys-AMC, 37 °C 30 min; technical replicates N = 2
T5 construct: made in house; host or cells: HEK293F
T5 sequence (Q13547 whole entry): as the sequence (Q13547 whole entry, species assumed) above
T5 sequence (Q9P2R6 whole entry partner): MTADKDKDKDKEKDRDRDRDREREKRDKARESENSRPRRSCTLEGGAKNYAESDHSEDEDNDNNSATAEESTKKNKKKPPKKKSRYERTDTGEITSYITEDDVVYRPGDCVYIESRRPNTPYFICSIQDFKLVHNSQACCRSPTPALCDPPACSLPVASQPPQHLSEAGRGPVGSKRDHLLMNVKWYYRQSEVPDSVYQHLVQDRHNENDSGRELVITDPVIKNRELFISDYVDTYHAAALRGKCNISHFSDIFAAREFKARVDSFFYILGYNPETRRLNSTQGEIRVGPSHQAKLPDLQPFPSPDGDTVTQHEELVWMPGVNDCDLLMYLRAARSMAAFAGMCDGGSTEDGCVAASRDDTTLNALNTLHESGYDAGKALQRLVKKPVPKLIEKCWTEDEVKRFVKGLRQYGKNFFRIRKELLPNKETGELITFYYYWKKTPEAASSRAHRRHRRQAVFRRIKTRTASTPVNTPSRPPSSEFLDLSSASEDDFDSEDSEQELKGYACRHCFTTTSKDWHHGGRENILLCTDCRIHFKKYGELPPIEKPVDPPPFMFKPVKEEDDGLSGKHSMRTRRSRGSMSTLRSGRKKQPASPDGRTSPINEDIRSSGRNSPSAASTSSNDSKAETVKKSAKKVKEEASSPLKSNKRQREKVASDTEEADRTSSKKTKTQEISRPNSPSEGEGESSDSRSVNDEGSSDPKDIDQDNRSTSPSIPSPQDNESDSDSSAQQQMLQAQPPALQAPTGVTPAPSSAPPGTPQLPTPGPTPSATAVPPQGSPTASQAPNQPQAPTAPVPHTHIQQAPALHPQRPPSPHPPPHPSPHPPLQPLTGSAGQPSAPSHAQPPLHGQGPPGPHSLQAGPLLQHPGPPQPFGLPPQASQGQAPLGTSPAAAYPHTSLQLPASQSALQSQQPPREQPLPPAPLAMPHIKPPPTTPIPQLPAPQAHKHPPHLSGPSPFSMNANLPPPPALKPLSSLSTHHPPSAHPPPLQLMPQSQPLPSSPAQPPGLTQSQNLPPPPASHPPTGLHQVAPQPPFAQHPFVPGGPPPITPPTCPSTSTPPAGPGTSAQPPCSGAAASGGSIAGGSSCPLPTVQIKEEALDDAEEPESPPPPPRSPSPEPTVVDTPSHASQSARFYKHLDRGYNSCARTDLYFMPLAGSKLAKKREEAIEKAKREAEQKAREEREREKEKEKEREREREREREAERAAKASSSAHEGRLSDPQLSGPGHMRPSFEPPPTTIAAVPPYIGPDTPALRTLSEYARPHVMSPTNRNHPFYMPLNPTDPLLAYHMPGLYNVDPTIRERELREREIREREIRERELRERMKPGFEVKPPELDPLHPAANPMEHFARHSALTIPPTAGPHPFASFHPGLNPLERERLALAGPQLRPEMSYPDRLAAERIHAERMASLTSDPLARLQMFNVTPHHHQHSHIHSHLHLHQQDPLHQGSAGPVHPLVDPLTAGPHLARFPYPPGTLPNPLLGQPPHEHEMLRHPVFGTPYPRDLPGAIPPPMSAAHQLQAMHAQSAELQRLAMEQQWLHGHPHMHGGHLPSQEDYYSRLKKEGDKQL
Source text: as §2, §1

SMRT complex (HDAC3) = target: T6, SMRT complex (HDAC3) (Homo sapiens, UniProt O15379); experiment: Boc-Lys HDAC inhibition assay; type: biochemical; details: HDAC complexes tables; 50 nM complex, 100 μM Boc-(Ac)Lys-AMC, 37 °C 30 min; technical replicates N = 2
T6 construct: made in house; host or cells: HEK293F
T6 sequence (O15379 whole entry, species assumed, one chain of several): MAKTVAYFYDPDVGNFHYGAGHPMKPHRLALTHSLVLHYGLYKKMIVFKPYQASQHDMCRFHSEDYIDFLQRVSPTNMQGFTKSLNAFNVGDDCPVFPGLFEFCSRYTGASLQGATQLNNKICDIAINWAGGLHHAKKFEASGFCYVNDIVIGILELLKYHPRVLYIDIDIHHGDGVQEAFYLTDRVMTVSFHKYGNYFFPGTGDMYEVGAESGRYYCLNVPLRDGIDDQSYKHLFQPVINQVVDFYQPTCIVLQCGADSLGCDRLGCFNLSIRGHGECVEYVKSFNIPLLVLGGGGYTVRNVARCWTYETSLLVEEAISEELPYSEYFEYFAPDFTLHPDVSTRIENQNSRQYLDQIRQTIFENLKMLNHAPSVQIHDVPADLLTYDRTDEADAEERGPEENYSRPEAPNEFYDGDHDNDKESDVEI
Source text: as §2, §1

Sin3A complex = target: T7, Sin3A complex (Homo sapiens, UniProt Q13547); experiment: Boc-Lys HDAC inhibition assay; type: biochemical; details: HDAC complexes tables; 50 nM complex, 100 μM Boc-(Ac)Lys-AMC, 37 °C 30 min; technical replicates N = 2
T7 construct: made in house; host or cells: HEK293F
Source text: as §2, §1

CoREST complex = target: T8, CoREST complex (Homo sapiens, UniProt Q13547+Q9UKL0); experiment: Boc-Lys HDAC inhibition assay; type: biochemical; details: HDAC complexes tables; 50 nM complex, 100 μM Boc-(Ac)Lys-AMC, 37 °C 30 min; technical replicates N = 2
T8 construct: made in house; host or cells: HEK293F
Source text: as §2, §1

[2] = alanine scan / H4K12Hd experiments, 20 min preincubation rt, read-out: IC50 of HMR against H3 K27Hd, H4 K16Hd and H4K12Hd peptides

IC50 ([1]; HDAC complexes tables, read-out: IC50, HMR (NuRD))	IC50 [1, 2]	IC50 ([1]; inhibitor library experiment, 20 min preincubation rt, fluorescence, read-out: IC50 of HMR against histone peptide library)	Kd (HMR complex)	IC50 (MIER1 complex)	IC50 (MiDAC complex)	IC50 (RERE complex)	IC50 (SMRT complex (HDAC3))	IC50 (Sin3A complex)	IC50 (CoREST complex)	Compound
50 nM	133 nM	134 nM	60 nM	106 nM	151 nM	209 nM	128 nM	145 nM	–	CC(=O)N[C@@H](CCCCN)C(=O)N[C@@H](C)C(=O)N[C@@H](C)C(=O)N[C@@H](CCCNC(=N)N)C(=O)N[C@@H](CCCCCC(=O)NO)C(=O)N[C@@H](CO)C(=O)N[C@@H](C)C(N)=O [compound 12, H3(23–29)K27Hd] (HELM PEPTIDE1{[ac].K.A.A.R.[O=C([C@H](CCCCCC(=O)[*:3])N[*:1])[*:2]].S.A.[am]}|CHEM1{[ON[*:1]]}$PEPTIDE1,CHEM1,6:R3-1:R1$$$V2.0)
–	308 nM	–	–	342 nM	480 nM	408 nM	379 nM	272 nM	234 nM	CC(=O)N[C@@H](CCCCN)C(=O)N[C@@H](C)C(=O)N[C@@H](C)C(=O)N[C@@H](CCCNC(=N)N)C(=O)N[C@@H](CCCCCC(=O)NO)C(=O)N[C@@H](C)C(=O)N[C@@H](C)C(N)=O [compound 23, H3 (23-29) K27Hd S28A] (HELM PEPTIDE1{[ac].K.A.A.R.[O=C([C@H](CCCCCC(=O)[*:3])N[*:1])[*:2]].A.A.[am]}|CHEM1{[ON[*:1]]}$PEPTIDE1,CHEM1,6:R3-1:R1$$$V2.0)
–	–	–	288 nM	–	–	–	–	–	–	CC(=O)N[C@@H](CCCCN)C(=O)NCC(=O)N[C@@H](CC(C)C)C(=O)NCC(=O)N[C@@H](CCCCCC(=O)NO)C(=O)NCC(=O)NCC(N)=O [compound 27, H4(8–14)K12Hd] (HELM PEPTIDE1{[ac].K.G.L.G.[O=C([C@H](CCCCCC(=O)[*:3])N[*:1])[*:2]].G.G.[am]}|CHEM1{[ON[*:1]]}$PEPTIDE1,CHEM1,6:R3-1:R1$$$V2.0)
